pEC50: −log10 of the molar value. Read-outs that look alike come from different tables or passages of the source.
Molecular target: CFTR (Homo sapiens, UniProt P13569)
Experiment: Membrane potential dye, Enteroid Assay A
Assay type: cell-based
Details: for Ent. A Max Activity: chloride transport as % of triple combination control (Enteroid Assay A); for pEC50: human enteroid cells, 18-24 hours, acute 10 μM forskolin and 300 nM ivacaftor, read-out: Ent. A EC50
Procedure, shortened: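 Human intestinal enteroids incubated 18-24 h at 37 °C with test compound, then loaded with 20 μM methyl oxonol (with CaCC inhibitors). Chloride transport triggered in chloride-free buffer with 10 μM forskolin, 100 μM IBMX, 300 nM Compound III; fluorescence read 15 min, expressed as % of a triple-combination corrector/potentiator control.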

CFTR, sequence (P13569 with tags, fused parts or gaps DEL508-508): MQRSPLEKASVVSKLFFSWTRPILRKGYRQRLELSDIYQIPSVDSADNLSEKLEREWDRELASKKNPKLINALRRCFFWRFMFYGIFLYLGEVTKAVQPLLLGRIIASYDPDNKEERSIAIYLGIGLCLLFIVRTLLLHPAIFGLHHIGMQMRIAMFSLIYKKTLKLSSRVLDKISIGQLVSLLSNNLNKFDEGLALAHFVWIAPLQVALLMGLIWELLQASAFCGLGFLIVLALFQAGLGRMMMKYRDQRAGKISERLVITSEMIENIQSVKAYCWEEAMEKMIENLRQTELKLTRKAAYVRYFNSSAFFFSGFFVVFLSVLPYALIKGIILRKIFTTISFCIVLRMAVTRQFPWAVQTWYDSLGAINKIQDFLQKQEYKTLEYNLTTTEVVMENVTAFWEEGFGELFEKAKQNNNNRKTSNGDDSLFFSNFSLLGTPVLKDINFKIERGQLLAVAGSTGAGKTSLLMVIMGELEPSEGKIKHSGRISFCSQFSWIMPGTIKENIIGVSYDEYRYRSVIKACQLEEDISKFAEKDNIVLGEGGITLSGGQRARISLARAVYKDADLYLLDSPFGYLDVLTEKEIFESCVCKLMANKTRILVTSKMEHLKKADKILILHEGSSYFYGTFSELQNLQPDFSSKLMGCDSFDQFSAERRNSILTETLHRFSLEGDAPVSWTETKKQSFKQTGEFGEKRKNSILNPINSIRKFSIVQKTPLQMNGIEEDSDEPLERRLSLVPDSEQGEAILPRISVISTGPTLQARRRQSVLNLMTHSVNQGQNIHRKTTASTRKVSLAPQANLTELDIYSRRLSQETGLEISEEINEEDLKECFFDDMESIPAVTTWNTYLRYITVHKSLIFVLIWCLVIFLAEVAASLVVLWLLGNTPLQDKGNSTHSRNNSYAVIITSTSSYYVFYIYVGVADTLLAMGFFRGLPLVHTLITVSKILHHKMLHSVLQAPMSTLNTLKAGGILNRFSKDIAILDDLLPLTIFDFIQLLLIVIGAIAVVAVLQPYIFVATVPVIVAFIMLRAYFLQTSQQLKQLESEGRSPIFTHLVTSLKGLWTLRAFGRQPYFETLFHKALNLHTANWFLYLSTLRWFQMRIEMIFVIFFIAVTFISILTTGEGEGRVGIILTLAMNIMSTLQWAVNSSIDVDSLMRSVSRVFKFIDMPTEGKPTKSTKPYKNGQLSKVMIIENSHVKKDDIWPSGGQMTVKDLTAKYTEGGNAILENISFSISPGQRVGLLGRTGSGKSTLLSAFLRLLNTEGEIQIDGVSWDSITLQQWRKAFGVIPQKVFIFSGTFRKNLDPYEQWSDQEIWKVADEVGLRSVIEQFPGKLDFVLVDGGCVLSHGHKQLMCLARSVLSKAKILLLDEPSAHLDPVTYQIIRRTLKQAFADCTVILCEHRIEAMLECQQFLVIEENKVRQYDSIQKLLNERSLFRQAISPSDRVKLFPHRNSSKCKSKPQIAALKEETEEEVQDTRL

| Structure (SMILES) | Ent. A Max Activity (Table 7) | pEC50 (Table 7) | Ent. A Max Activity (Table 6) | pEC50 (Table 6) |
| --- | --- | --- | --- | --- |
| COc1ccc(CN2C(=O)c3cccc(c3)S(=O)(=O)Nc3nc(cc(-c4c(C)cccc4C)n3)OC[C@H]2CC2(C(F)(F)F)CC2)cc1 [Compound 678] | ++ (++ is 30-60%) | > 6.00 |  |  |
| Cc1cccc(C)c1-c1cc2nc(n1)NS(=O)(=O)c1cccc(c1)C(=O)N(Cc1ccccn1)CCCO2 [Compound 5, 6-(2,6-Dimethylphenyl)-2,2-dioxo-13-(2-pyridylmethyl)-9-oxa-2λ^6-thia-3,5,13,20-tetrazatricyclo[13.3.1.14,8]icosa-1(19),4(20),5,7,15,17-hexaen-14-one] |  |  | +++ (+++ is >60%) | 5.52 to 6.00 |
| Cc1cccc(C)c1-c1cc2nc(n1)NS(=O)(=O)c1cccc(c1)C(=O)N(C)CC(c1ccc(-c3ccccc3)cn1)O2 (stereo not shown) [Compound 513] |  |  | +++ (+++ is >60%) | 5.52 to 6.00 |
| COc1ccc(CN2C(=O)c3cccc(c3)S(=O)(=O)Nc3nc(cc(-c4c(C)cccc4C)n3)OC[C@H]2CC2(C(F)(F)F)CC2)cc1 [Compound 679] | +++ (+++ is >60%) | > 6.00 |  |  |
| Cc1cccc(C)c1-c1cc2nc(n1)NS(=O)(=O)c1cccc(c1)C(=O)N(Cc1ccccc1)C(C(=O)NC1CCCCC1)CO2 (stereo not shown) [Compound 515] |  |  | + (+ is <30%) | 5.52 to 6.00 |
| Cc1cccc(C)c1-c1cc2nc(n1)NS(=O)(=O)c1cccc(c1)C(=O)N(CCC1CCOCC1)CC(c1ccc(C(C)(C)C)cc1)O2 (stereo not shown) [Compound 342] |  |  | +++ (+++ is >60%) | > 6.00 |
| COc1cccc(CN2C(=O)c3cccc(c3)S(=O)(=O)Nc3nc(cc(-c4c(C)cccc4C)n3)OC[C@H]2CC(C)C)n1 [Compound 423] |  |  | +++ (+++ is >60%) | > 6.00 |
| Cc1cccc(C)c1-c1cc2nc(n1)NS(=O)(=O)c1cccc(c1)C(=O)N(CC(O)CO)[C@H](CC(C)C)CO2 (stereo in doubt) [Compound 39, (11R)-12-[(2S)-2,3-Dihydroxypropyl]-6-(2,6-dimethylphenyl)-11-(2-methylpropyl)-9-oxa-2λ^6-thia-3,5,12,19-tetraazatricyclo[12.3.1.14,8]nonadeca-1(17),4(19),5,7,14(18),15-hexaene-2,2,13-trione] |  |  | +++ (+++ is >60%) | > 6.00 |
| Cc1cccc(C)c1-c1cc2nc(n1)NS(=O)(=O)c1cccc(c1)C(=O)N(Cc1cncn1C)[C@H](CC(C)C)CO2 [Compound 365] |  |  | +++ (+++ is >60%) | 5.52 to 6.00 |
| Cc1cccc(C)c1-c1cc2nc(n1)NS(=O)(=O)c1cccc(c1)C(=O)N(Cc1cnn(C)c1)[C@H](CC(C)C)CO2 [Compound 432] |  |  | +++ (+++ is >60%) | > 6.00 |
| Cc1cccc(C)c1-c1cc2nc(n1)NS(=O)(=O)c1cccc(c1)C(=O)N(CCC(C)C)[C@H](CCC1(C(F)(F)F)CC1)CO2 [Compound 851] |  |  | + (+ is <30%) |  |
| Cc1cccc(C)c1-c1cc2nc(n1)NS(=O)(=O)c1cccc(c1)C(=O)N(C)C[C@@H](c1ccc(C(C)(C)C)cc1)O2 (single isomer, unassigned) [Compound 12, 10-(4-tert-butylphenyl)-6-(2,6-dimethylphenyl)-12-methyl-2,2-dioxo-9-oxa-2λ^6-thia-3,5,12,19-tetrazatricyclo[12.3.1.14,8]nonadeca-1(18),4(19),5,7,14,16-hexaen-13-one] | ++ (++ is 30-60%) | > 6.00 |  |  |
| Cc1cccc(C)c1-c1cc2nc(n1)NS(=O)(=O)c1cccc(c1)C(=O)N(Cc1ccccc1)[C@H](CCC1(C(F)(F)F)CC1)CO2 [Compound 853] |  |  | ++ (++ is 30-60%) | > 6.00 |
| Cc1cccc(C)c1-c1cc2nc(n1)NS(=O)(=O)c1cccc(c1)C(=O)N(Cc1cc3n(n1)CCNC3=O)[C@H](CC(C)C)CO2 [Compound 41, (11R)-6-(2,6-dimethylphenyl)-11-isobutyl-2,2-dioxo-12-[(4-oxo-6,7-dihydro-5H-pyrazolo[1,5-a]pyrazin-2-yl)methyl]-9-oxa-2λ^6-thia-3,5,12,19-tetrazatricyclo[12.3.1.14,8]nonadeca-1(18),4(19),5,7,14,16-hexaen-13-one] |  |  | +++ (+++ is >60%) | > 6.00 |
| Cc1cccc(C)c1-c1cc2nc(n1)NS(=O)(=O)c1cccc(c1)C(=O)N(Cc1cccn(C)c1=O)[C@H](CC(C)C)CO2 [Compound 417] | +++ (+++ is >60%) | > 6.00 |  |  |
| Cc1cccc(C)c1-c1cc2nc(n1)NS(=O)(=O)c1cccc(c1)C(=O)N(CCC(C1CC1)C1CC1)[C@H](CC(C)C)CO2 [Compound 413] | +++ (+++ is >60%) | > 6.00 |  |  |
| Cc1cccc(C)c1-c1cc2nc(n1)NS(=O)(=O)c1cccc(c1)C(=O)N(C)CC(CN(CCC(C)(C)C)CCC(C)(C)C)O2 (stereo not shown) [Compound 98, 10-[[bis(3,3-Dimethylbutyl)amino]methyl]-6-(2,6-dimethylphenyl)-12-methyl-2,2-dioxo-9-oxa-2λ^6-thia-3,5,12,19-tetrazatricyclo[12.3.1.14,8]nonadeca-1(18),4(19),5,7,14,16-hexaen-13-one] |  |  | +++ (+++ is >60%) | > 6.00 |
| Cc1cccc(C)c1-c1cc2nc(n1)NS(=O)(=O)c1cccc(c1)C(=O)N(C)CC(c1ccc(-c3ccncc3)cc1)O2 (stereo not shown) [Compound 9, 6-(2,6-Dimethylphenyl)-12-methyl-2,2-dioxo-10-[4-(4-pyridyl)phenyl]-9-oxa-2λ^6-thia-3,5,12,19-tetrazatricyclo[12.3.1.14,8]nonadeca-1(18),4(19),5,7,14,16-hexaen-13-one] |  |  | ++ (++ is 30-60%) | > 6.00 |
| Cc1cccc(C)c1-c1cc2nc(n1)NS(=O)(=O)c1cccc(c1)C(=O)N(Cc1ccccc1)C(CCC1(C(F)(F)F)CC1)CO2 (stereo not shown) [Compound 689] |  |  | +++ (+++ is >60%) | > 6.00 |
| Cc1ccccc1CN1C(=O)c2cccc(c2)S(=O)(=O)Nc2nc(cc(-c3c(C)cccc3C)n2)OC[C@H]1CC(C)C [Compound 356] |  |  | +++ (+++ is >60%) | > 6.00 |
| Cc1cccc(C)c1-c1cc2nc(n1)NS(=O)(=O)c1cccc(c1)C(=O)N(C[C@H]1CCOC(C)(C)C1)[C@H](CC(C)C)CO2 [Compound 428] |  |  | +++ (+++ is >60%) | > 6.00 |

More lines, now with the values ahead:

| Ent. A Max Activity (Table 7) | pEC50 (Table 7) | Ent. A Max Activity (Table 6) | pEC50 (Table 6) | Structure (SMILES) |
| --- | --- | --- | --- | --- |
| ++ (++ is 30-60%) | > 6.00 |  |  | Cc1cccc(C)c1-c1cc2nc(n1)NS(=O)(=O)c1cccc(c1)CN(Cc1ccccc1OC(C)C)[C@H](CC(C)C)CO2 [Compound 1036] |
| +++ (+++ is >60%) | > 6.00 |  |  | Cc1cccc(C)c1-c1cc2nc(n1)NS(=O)(=O)c1cccc(c1)C(=O)N(Cc1ccc(N3C[C@@H](O)[C@@H](O)C3)nc1)[C@H](CC(C)C)CO2 [Compound 953] |
| +++ (+++ is >60%) | > 6.00 |  |  | Cc1cccc(C)c1-c1cc2nc(n1)NS(=O)(=O)c1cccc(c1)C(=O)N(Cc1ccc(N(C)C)nc1)[C@H](CC(C)C)CO2 [Compound 949] |
|  |  | +++ (+++ is >60%) | 5.52 to 6.00 | Cc1cccc(C)c1-c1cc2nc(n1)NS(=O)(=O)c1cccc(c1)C(=O)N(Cc1ccc[nH]c1=O)[C@H](CC(C)C)CO2 [Compound 989] |
| ++ (++ is 30-60%) | 5.52 to 6.00 |  |  | Cc1cccc(C)c1-c1cc2nc(n1)NS(=O)(=O)c1cccc(c1)C(=O)N(CCC(C)(C)C)[C@H](CC(F)(F)F)CO2 [Compound 984] |
| +++ (+++ is >60%) | > 6.00 |  |  | Cc1cccc(C)c1-c1cc2nc(n1)NS(=O)(=O)c1cccc(c1)C(=O)N(Cc1ccc(NC[C@@H](O)CO)nc1)[C@H](CC(C)C)CO2 [Compound 947] |
| +++ (+++ is >60%) | > 6.00 |  |  | Cc1cccc(C)c1-c1cc2nc(n1)NS(=O)(=O)c1cccc(c1)C(=O)N(Cc1ccc(N3CCC3)nc1)[C@H](CC(C)C)CO2 [Compound 950] |
|  |  | +++ (+++ is >60%) | > 6.00 | Cc1cccc(C)c1-c1cc2nc(n1)NS(=O)(=O)c1cccc(c1)C(=O)N(Cc1ccn(C)n1)[C@H](CC(C)C)CO2 [Compound 855] |
|  |  | ++ (++ is 30-60%) | 5.52 to 6.00 | Cc1cccc(C)c1-c1cc2nc(n1)NS(=O)(=O)c1cccc(c1)C(=O)N(Cc1ccccc1C#N)[C@H](CC(C)C)CO2 [Compound 861] |
| ++ (++ is 30-60%) | > 6.00 |  |  | Cc1cccc(C)c1-c1cc2nc(n1)NS(=O)(=O)c1cccc(c1)CN(CCC(C)CC(C)(C)C)[C@H](CC(C)C)CO2 (stereo partly shown) [Compound 1022] |
| + (+ is <30%) | 5.52 to 6.00 |  |  | Cc1cccc(C)c1-c1cc2nc(n1)NS(=O)(=O)c1cccc(c1)CN(C(=O)CC1CCCCC1)[C@H](CC(C)C)CO2 [Compound 1050] |
|  |  | + (+ is <30%) |  | Cc1cccc(C)c1-c1cc2nc(n1)NS(=O)(=O)c1cccc(c1)C(=O)N(C)C[C@H](CNCCC(C)(C)C)O2 [Compound 1017] |
| +++ (+++ is >60%) | > 6.00 |  |  | Cc1cccc(C)c1-c1cc2nc(n1)NS(=O)(=O)c1cccc(c1)C(=O)N(Cc1ccc(N(C)CCN(C)C)nc1)[C@H](CC(C)C)CO2 [Compound 943] |
| ++ (++ is 30-60%) | > 6.00 |  |  | Cc1cccc(C)c1-c1cc2nc(n1)NS(=O)(=O)c1cccc(c1)C(=O)N(CCC(C)(C)C)[C@H](CC(F)(F)F)CO2 [Compound 985] |
| + (+ is <30%) |  |  |  | Cc1cccc(C)c1-c1cc2nc(n1)NS(=O)(=O)c1cccc(c1)CN(C(=O)CC(C)C)[C@H](CC(C)C)CO2 [Compound 1049] |
| +++ (+++ is >60%) | > 6.00 |  |  | Cc1cccc(C)c1-c1cc2nc(n1)NS(=O)(=O)c1cccc(c1)C(=O)N(C)[C@H](c1ccc(C(C)(C)C)cc1)CO2 [Compound 1011] |
| +++ (+++ is >60%) | > 6.00 |  |  | Cc1cccc(C)c1-c1cc2nc(n1)NS(=O)(=O)c1cccc(c1)C(=O)N(Cc1ccc(N3CCCC(C)C3)nc1)[C@H](CC(C)C)CO2 (stereo partly shown) [Compound 964] |
